# From patent EP3046573B1, “AMYLIN ANALOGUES” (Zealand Pharma A/S, priority 2013, dated 2015)
# Read-outs that look alike come from different tables or passages of the source. Numbered stars: 1 amine (or outer) side, 2 acyl side, 3 side chain; on linkers, the order of the positions; unused ones are H or OH. Bridge positions count the residues as written; N and C are the ends. Square brackets hold non-standard residues; d marks the D form. Peptide text beside a SMILES is read from it. * marks the point of attachment. C20 diacid = O=C(O)CCCCCCCCCCCCCCCCCCC(=O)*; γGlu = O=C(O)[C@H](CCC(=O)[*:2])N[*:1]; NMeI = CC[C@H](C)[C@H](NC)C(=O)O; Sar = CNCC(=O)O
# Experiments:
# [1] = molecular target: T1, human calcitonin receptor (hCTR2) (Homo sapiens, UniProt P30988); assay: hCTR2 assay: induction of cAMP (AlphaScreen cAMP Assay kit) in COS7 cells expressing hCTR2; format: cell-based
# T1 construct: expressed in transfected cells
# T1 sequence (P30988 25-474): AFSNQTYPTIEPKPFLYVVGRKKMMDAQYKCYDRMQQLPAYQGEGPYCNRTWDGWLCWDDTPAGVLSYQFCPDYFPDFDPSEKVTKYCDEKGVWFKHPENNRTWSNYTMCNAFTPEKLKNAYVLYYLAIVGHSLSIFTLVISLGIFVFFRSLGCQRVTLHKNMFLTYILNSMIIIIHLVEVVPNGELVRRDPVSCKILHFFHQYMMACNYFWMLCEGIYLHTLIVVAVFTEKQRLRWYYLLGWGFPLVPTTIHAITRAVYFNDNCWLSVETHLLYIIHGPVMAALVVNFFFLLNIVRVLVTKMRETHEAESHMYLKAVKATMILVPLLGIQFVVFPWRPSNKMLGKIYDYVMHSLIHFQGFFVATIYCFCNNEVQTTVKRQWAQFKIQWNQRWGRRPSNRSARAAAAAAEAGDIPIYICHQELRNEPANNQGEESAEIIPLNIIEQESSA
# In short: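 cAMP induction was measured by AlphaScreen in COS7 cells stably expressing hCTR2 without RAMPs, after 15 min at 37° C with increasing peptide concentrations, 100 µM IBMX and 0.1% casein (Tyrode, pH 7.4). A 4-parameter logistic fit gave EC50 and % efficacy versus pramlintide.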
# [2] = Solubility assessment (turbidity absorbance at 325 nm); format: physicochemical; details: stock 2 mg/ml diluted 1:1, ambient temperature (typically 25°C), n=1; for Solubility, Acetate buffer pH 4: 100 mM acetate buffer pH 4.0; for Solubility, Acetate buffer pH 5: 100 mM acetate buffer pH 5.0; for Solubility, Histidine buffer pH 6: 100 mM histidine buffer pH 6.0; for Solubility, Histidine buffer pH 7: 100 mM histidine buffer pH 7.0; for Solubility, Phosphate buffer pH 6: 100 mM phosphate buffer pH 6.0; for Solubility, Phosphate buffer pH 7: 100 mM phosphate buffer pH 7.0; for Solubility, Phosphate buffer pH 7.5: 100 mM phosphate buffer pH7.5
# In short: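 Turbidity read as absorbance at 325 nm (also 280 nm), single samples at ambient temperature (typically 25°C); ≤ 0.02 units counts as ≥ 1 mg/ml soluble. Samples made by 1:1 dilution of a 2 mg/ml acidic stock into 100 mM acetate, histidine or phosphate buffers, pH 4.0–7.5.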
# [3] = cAMP induction in COS7 cells expressing hCTR2, average of a minimum of 3 determinations, read-out: hCTR2 EC50
Structure (SMILES),"EC50 [1, 3] [nM]","Solubility, Acetate buffer pH 4 [2]","Solubility, Acetate buffer pH 5 [2]","Solubility, Histidine buffer pH 6 [2]","Solubility, Histidine buffer pH 7 [2]","Solubility, Phosphate buffer pH 6 [2]","Solubility, Phosphate buffer pH 7 [2]","Solubility, Phosphate buffer pH 7.5 [2]",EC50 [1] [nM]
"CC[C@H](C)[C@@H](C(=O)N[C@@H](CC(C)C)C(=O)N[C@@H](CO)C(=O)N[C@@H](CO)C(=O)N[C@H](C(=O)N[C@@H](CC(N)=O)C(=O)N[C@H](C(=O)NCC(=O)N[C@@H](CO)C(=O)N[C@@H](CC(N)=O)C(=O)N[C@H](C(=O)N1CCC[C@H]1C(N)=O)[C@@H](C)O)C(C)C)[C@@H](C)O)N(C)C(=O)CN(C)C(=O)[C@H](CC(N)=O)NC(=O)[C@H](CC(N)=O)NC(=O)[C@H](CO)NC(=O)[C@H](CO)NC(=O)[C@H](Cc1c[nH]cn1)NC(=O)[C@H](Cc1c[nH]cn1)NC(=O)[C@H](CC(C)C)NC(=O)[C@H](Cc1ccccc1)NC(=O)[C@H](CCC(=O)O)NC(=O)[C@H](C)NC(=O)[C@H](CC(C)C)NC(=O)[C@H](CCCNC(=N)N)NC(=O)[C@H](CCC(N)=O)NC(=O)[C@@H](NC(=O)[C@H](C)NC(=O)[C@@H]1CSSC[C@H](NC(=O)[C@H](CCCNC(=N)N)NC(=O)CC[C@H](NC(=O)CCCCCCCCCCCCCCCCCCC(=O)O)C(=O)O)C(=O)N[C@@H](CC(N)=O)C(=O)N[C@@H]([C@@H](C)O)C(=O)N[C@@H](C)C(=O)N[C@@H]([C@@H](C)O)C(=O)N1)[C@@H](C)O [Compound 51, [19CD]-isoGlu-RC()NTATC()ATQRLAEFLHHSSNN-Gly(Me)-Ile(Me)-LSSTNVGSNTP-NH2] ({C20 diacid-γGlu}-RCNTATCATQRLAEFLHHSSNN[Sar][NMeI]LSSTNVGSNTP-NH2; disulfide 2-7)",0.093,II (II indicates solubility ≤ 1 mg/ml),II (II indicates solubility ≤ 1 mg/ml),II (II indicates solubility ≤ 1 mg/ml),II (II indicates solubility ≤ 1 mg/ml),II (II indicates solubility ≤ 1 mg/ml),II (II indicates solubility ≤ 1 mg/ml),II (II indicates solubility ≤ 1 mg/ml),
"CC[C@H](C)[C@@H](C(=O)N[C@@H](CC(C)C)C(=O)N[C@@H](CO)C(=O)N[C@@H](CO)C(=O)N[C@H](C(=O)N[C@@H](CC(N)=O)C(=O)N[C@H](C(=O)NCC(=O)N[C@@H](CO)C(=O)N[C@@H](CC(N)=O)C(=O)N[C@H](C(=O)N1CCC[C@H]1C(N)=O)[C@@H](C)O)C(C)C)[C@@H](C)O)N(C)C(=O)[C@H](C)NC(=O)CN(C)C(=O)[C@H](Cc1ccccc1)NC(=O)[C@H](CO)NC(=O)[C@H](CO)NC(=O)[C@H](Cc1c[nH]cn1)NC(=O)[C@H](Cc1c[nH]cn1)NC(=O)[C@H](CC(C)C)NC(=O)[C@H](Cc1ccccc1)NC(=O)[C@H](CCC(=O)O)NC(=O)[C@H](C)NC(=O)[C@H](CC(C)C)NC(=O)[C@H](CCCNC(=N)N)NC(=O)[C@H](CCC(N)=O)NC(=O)[C@@H](NC(=O)[C@H](C)NC(=O)[C@@H]1CSSC[C@H](NC(=O)[C@H](CCCNC(=N)N)NC(=O)CC[C@H](NC(=O)CCCCCCCCCCCCCCCCCCC(=O)O)C(=O)O)C(=O)N[C@@H](CC(N)=O)C(=O)N[C@@H]([C@@H](C)O)C(=O)N[C@@H](C)C(=O)N[C@@H]([C@@H](C)O)C(=O)N1)[C@@H](C)O [Compound 52, [19CD]-isoGlu-RC()NTATC()ATQRLAEFLHHSSF-Gly(Me)-A-Ile(Me)-LSSTNVGSNTP-NH2] ({C20 diacid-γGlu}-RCNTATCATQRLAEFLHHSSF[Sar]A[NMeI]LSSTNVGSNTP-NH2; disulfide 2-7)",0.076,SS (SS indicates solubility ≥ 1mg/ml),SS (SS indicates solubility ≥ 1mg/ml),SS (SS indicates solubility ≥ 1mg/ml),SS (SS indicates solubility ≥ 1mg/ml),SS (SS indicates solubility ≥ 1mg/ml),SS (SS indicates solubility ≥ 1mg/ml),SS (SS indicates solubility ≥ 1mg/ml),
"CC[C@H](C)[C@@H](C(=O)N[C@@H](CC(C)C)C(=O)N[C@@H](CO)C(=O)N[C@@H](CO)C(=O)N[C@H](C(=O)N[C@@H](CC(N)=O)C(=O)N[C@H](C(=O)NCC(=O)N[C@@H](CO)C(=O)N[C@@H](CC(N)=O)C(=O)N[C@H](C(=O)N1CCC[C@H]1C(N)=O)[C@@H](C)O)C(C)C)[C@@H](C)O)N(C)C(=O)CN(C)C(=O)[C@H](Cc1ccccc1)NC(=O)[C@H](CO)NC(=O)[C@H](CO)NC(=O)[C@H](Cc1c[nH]cn1)NC(=O)[C@H](Cc1c[nH]cn1)NC(=O)[C@H](CC(C)C)NC(=O)[C@H](Cc1ccccc1)NC(=O)[C@H](CCC(=O)O)NC(=O)[C@H](C)NC(=O)[C@H](CC(C)C)NC(=O)[C@H](CCCNC(=N)N)NC(=O)[C@H](CCC(N)=O)NC(=O)[C@@H](NC(=O)[C@H](C)NC(=O)[C@@H]1CSSC[C@H](NC(=O)[C@H](CCCNC(=N)N)NC(=O)CC[C@H](NC(=O)CCCCCCCCCCCCCCCCCCC(=O)O)C(=O)O)C(=O)N[C@@H](CC(N)=O)C(=O)N[C@@H]([C@@H](C)O)C(=O)N[C@@H](C)C(=O)N[C@@H]([C@@H](C)O)C(=O)N1)[C@@H](C)O [Compound 53, [19CD]-isoGlu-RC()NTATC()ATQRLAEFLHHSSF-Gly(Me)-Ile(Me)-LSSTNVGSNTP-NH2] ({C20 diacid-γGlu}-RCNTATCATQRLAEFLHHSSF[Sar][NMeI]LSSTNVGSNTP-NH2; disulfide 2-7)",0.12,SS (SS indicates solubility ≥ 1mg/ml),SS (SS indicates solubility ≥ 1mg/ml),SS (SS indicates solubility ≥ 1mg/ml),SS (SS indicates solubility ≥ 1mg/ml),SS (SS indicates solubility ≥ 1mg/ml),SS (SS indicates solubility ≥ 1mg/ml),SS (SS indicates solubility ≥ 1mg/ml),
"CC[C@H](C)[C@@H](C(=O)N[C@@H](CO)C(=O)N[C@@H](CO)C(=O)N[C@H](C(=O)N[C@@H](CC(N)=O)C(=O)N[C@H](C(=O)NCC(=O)N[C@@H](CO)C(=O)N[C@@H](CC(N)=O)C(=O)N[C@H](C(=O)N1CCC[C@H]1C(N)=O)[C@@H](C)O)C(C)C)[C@@H](C)O)N(C)C(=O)[C@H](C)NC(=O)CN(C)C(=O)[C@H](Cc1ccccc1)NC(=O)[C@H](CC(N)=O)NC(=O)[C@H](CC(N)=O)NC(=O)[C@H](CO)NC(=O)[C@H](CO)NC(=O)[C@H](Cc1c[nH]cn1)NC(=O)[C@H](Cc1c[nH]cn1)NC(=O)[C@H](CC(C)C)NC(=O)[C@H](Cc1ccccc1)NC(=O)[C@H](CCC(=O)O)NC(=O)[C@H](C)NC(=O)[C@H](CC(C)C)NC(=O)[C@H](CCCNC(=N)N)NC(=O)[C@H](CCC(N)=O)NC(=O)[C@@H](NC(=O)[C@H](C)NC(=O)[C@@H]1CSSC[C@H](NC(=O)[C@H](CCCNC(=N)N)NC(=O)CC[C@H](NC(=O)CCCCCCCCCCCCCCCCCCC(=O)O)C(=O)O)C(=O)N[C@@H](CC(N)=O)C(=O)N[C@@H]([C@@H](C)O)C(=O)N[C@@H](C)C(=O)N[C@@H]([C@@H](C)O)C(=O)N1)[C@@H](C)O [Compound 54, [19CD]-isoGlu-RC()NTATC()ATQRLAEFLHHSSNNF-Gly(Me)-A-Ile(Me)-SSTNVGSNTP-NH2] ({C20 diacid-γGlu}-RCNTATCATQRLAEFLHHSSNNF[Sar]A[NMeI]SSTNVGSNTP-NH2; disulfide 2-7)",,SS (SS indicates solubility ≥ 1mg/ml),SS (SS indicates solubility ≥ 1mg/ml),SS (SS indicates solubility ≥ 1mg/ml),SS (SS indicates solubility ≥ 1mg/ml),SS (SS indicates solubility ≥ 1mg/ml),SS (SS indicates solubility ≥ 1mg/ml),SS (SS indicates solubility ≥ 1mg/ml),0.091
